According to patent US20200155434A1, “SKIN CLEANSING COMPOSITION” (KAO CORPORATION, priority 2017, published 2020):

Assays:
[1] = at 25° C.; cited from earlier work
[2] = cited from earlier work
[3] = Detergency against keratotic plug after washing with water; set-up: species or system human; conditions: sample substituted with water; Table 1 samples
Method: After one minute from the contact of the keratotic plugs with the sample, Kimwipes (registered trademark) was brought into contact with an edge of the cover glass to remove the sample under the cover glass. Then, 0.05 mL of water was gradually dropwise added to an edge of the cover glass. The sample dropwise-added with water was recorded with the digital microscope, and the collapse state of the keratotic plugs was evaluated after one minute from the contact of the keratotic plugs with water according to the criteria for evaluating collapsibility of the keratotic plugs. The results of the evaluation are shown in the column “Keratotic plug detergency (during washing with water)” in Table. The measurements were performed at 25° C.

[4] = Detergency against keratotic plug during cleansing (penetration and collapse under digital microscope); set-up: species or system human; conditions: Table 1 samples; for Penetration of the sample into keratotic plugs (in words): contact with sample for 1 minute; for Collapse of keratotic plugs in contact with the sample (in words): assumption of cleansing
Method: Keratotic plugs in the nasal region were removed with “Biore Nose Pack (manufactured by Kao Corporation)”, the resulting keratotic plugs on the pack were gently taken out with tweezers.
The resulting keratotic plugs were placed on a slide glass and were covered with a cover glass, and 0.05 mL of a sample was dropwise added to an edge of the cover glass. Consequently, the sample entered into the gap between the slide glass and the cover glass by capillary phenomenon and was brought into contact with the keratotic plugs. The contact of the keratotic plugs and the sample was recorded with a digital microscope (VHX-5000, manufactured by Keyence Corporation, magnification: 150×), and the penetration of the sample into the keratotic plugs and the collapse state of the keratotic plugs were evaluated after one minute from the contact of the keratotic plugs with the sample. The results of each evaluation are shown in the columns “Keratotic plug detergency (penetration)” and “Keratotic plug detergency (during cleansing)” in Tables. The measurements were performed at 25° C.
The penetration was relatively evaluated by criteria with 11 ratings starting from the rating 1 “the sample hardly penetrated into the keratotic plug” to the rating 11 “the sample penetrated to the center of the keratotic plug”. The collapsibility by the detergency against keratotic plug was relatively evaluated by criteria with 11 ratings starting from the rating 1 “almost no change is observed in the external appearance of the keratotic plug” to the rating 11 “peeling or separation is observed in the area from the surface layer to the central portion of the keratotic plug (the initial appearance of the keratotic plug is not retained)”.

[5] = tested on: insoluble protein (seine protein); test: Effect of suppressing protein aggregation; format: physicochemical; conditions: Table 1 sample
Method: Thirty milliliters of a sample and 0.06 g of an insoluble protein (seine protein) were placed in a 35-mL standard glass bottle, and the concentration of the insoluble protein was adjusted to 0.2 mass % (test sample). Separately, a standard sample was prepared by using water instead of the sample and adjusting the concentration of the insoluble protein to 0.2 mass %. Subsequently, the standard glass bottles were sufficiently shaken and stirred up and down (shake width: 15 cm, 20 times at a rate of 5 times for 3 seconds) in a thermostatic chamber of 25° C. and were left to stand for 3 minutes. The precipitation state of the insoluble protein was then visually verified, and the ratio of the amount of the precipitated standard sample to the amount of the precipitated test sample (the height of the precipitate in each standard glass bottle was measured as the precipitation amount), (precipitation amount of standard sample)/(precipitation amount of test sample), was calculated. A higher ratio indicates a higher effect of suppressing protein aggregation.

CC(C)(N)CO [AMP, 2-amino-2-methyl-1-propanol]
pKa [1]: 9.72 | Solubility in water (in words) [2]: readily dissolved in water

CC(N)(CO)CO [AMPD, 2-amino-2-methyl-1,3-propanediol]
pKa [1]: 8.76

NC(CO)(CO)CO [Tris, 2-amino-2-hydroxymethyl-1,3-propanediol]
Collapse of keratotic plugs during washing with water (in words) [3]: further accelerating the collapse of keratotic plugs | pKa [1]: 8.03 | Penetration of the sample into keratotic plugs (in words) [4]: penetrated into keratotic plugs | Solubility in water (in words) [2]: readily dissolved in water

O=P([O-])([O-])O.[Na+].[Na+] [disodium hydrogen phosphate]
Collapse of keratotic plugs during washing with water (in words) [3]: collapse of keratotic plugs did not progress | Collapse of keratotic plugs in contact with the sample (in words) [4]: collapse of the keratotic plugs did not progress | Penetration of the sample into keratotic plugs (in words) [4]: hardly penetrated into keratotic plugs

O=C([O-])O.[Na+] [sodium hydrogen carbonate]
Collapse of keratotic plugs during washing with water (in words) [3]: collapse of keratotic plugs did not progress | Collapse of keratotic plugs in contact with the sample (in words) [4]: collapse of the keratotic plugs did not progress | Penetration of the sample into keratotic plugs (in words) [4]: hardly penetrated into keratotic plugs

O=P([O-])([O-])[O-].[Na+].[Na+].[Na+] [trisodium phosphate]
Collapse of keratotic plugs during washing with water (in words) [3]: collapse of keratotic plugs did not progress | Collapse of keratotic plugs in contact with the sample (in words) [4]: collapse of the keratotic plugs did not progress | Penetration of the sample into keratotic plugs (in words) [4]: hardly penetrated into keratotic plugs

sodium polyoxyethylene (2) lauryl ether sulfate [POE (2) sodium lauryl sulfate]
Action on proteins (in words) [5]: dissolve the proteins | Collapse of keratotic plugs in contact with the sample (in words) [4]: collapse of the keratotic plugs did not progress | Penetration of the sample into keratotic plugs (in words) [4]: hardly penetrated into the keratotic plugs
